Test results reported in ChEMBL document CHEMBL1201862, “PubChem BioAssay data set” (2004).
Calls of active or inactive are those of the source.

Tests used:
[1] = test system: HEK293; test: inhibition of NOD1-driven NF-kB reporter – cell-based, luminescence, uHTS, primary screen (AID 1578); format: functional; settings: Homo sapiens
[2] = test system: HEK293; test: cells; format: functional, cell-based; settings: Homo sapiens
[3] = test system: HEK293; test: cells; format: functional, cell-based; settings: Homo sapiens; remark: listed apart in the source
[4] = test system: HEK293; test: NOD2 signaling inhibitors in MDP-stimulated cells, cell-based, uHTS, luminescence (AID 2001); format: functional; settings: Homo sapiens
[5] = target: Tumor necrosis factor (Homo sapiens, UniProt P01375); test: analog potency on TNFa NF-kB signaling – cell-based, revised, SAR follow-up (AID 2337); format: functional
[6] = target: T1, Nucleotide-binding oligomerization domain-containing protein 1 (Homo sapiens, UniProt Q9Y239); test: blockers of NOD1 pathway activity – revised, SAR follow-up (AID 2333); format: functional
T1 sequence (Q9Y239 whole entry): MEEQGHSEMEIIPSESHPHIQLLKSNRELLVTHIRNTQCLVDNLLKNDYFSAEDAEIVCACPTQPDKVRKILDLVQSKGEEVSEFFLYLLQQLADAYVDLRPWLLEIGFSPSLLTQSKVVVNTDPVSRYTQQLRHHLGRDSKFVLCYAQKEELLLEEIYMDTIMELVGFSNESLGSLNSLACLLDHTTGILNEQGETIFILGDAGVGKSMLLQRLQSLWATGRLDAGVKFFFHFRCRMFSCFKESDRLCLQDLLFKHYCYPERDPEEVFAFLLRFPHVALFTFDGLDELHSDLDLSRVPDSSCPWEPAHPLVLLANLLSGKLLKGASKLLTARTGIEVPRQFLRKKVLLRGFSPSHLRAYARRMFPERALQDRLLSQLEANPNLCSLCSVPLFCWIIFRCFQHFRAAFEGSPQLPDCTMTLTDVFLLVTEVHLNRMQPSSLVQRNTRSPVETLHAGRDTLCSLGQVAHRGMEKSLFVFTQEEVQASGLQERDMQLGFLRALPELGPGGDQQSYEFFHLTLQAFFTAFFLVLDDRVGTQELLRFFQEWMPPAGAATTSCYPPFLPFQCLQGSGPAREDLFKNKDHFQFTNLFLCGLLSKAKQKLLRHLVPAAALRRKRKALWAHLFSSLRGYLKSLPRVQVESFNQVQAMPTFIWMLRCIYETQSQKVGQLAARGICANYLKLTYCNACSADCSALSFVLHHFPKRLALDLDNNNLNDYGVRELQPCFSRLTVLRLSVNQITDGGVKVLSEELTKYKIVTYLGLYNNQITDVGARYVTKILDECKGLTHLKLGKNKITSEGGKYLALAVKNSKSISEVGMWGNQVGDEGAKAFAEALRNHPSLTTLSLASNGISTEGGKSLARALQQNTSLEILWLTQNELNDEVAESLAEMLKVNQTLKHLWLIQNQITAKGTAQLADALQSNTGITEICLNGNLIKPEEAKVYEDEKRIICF

[7] = target: Nucleotide-binding oligomerization domain-containing protein 2 (Homo sapiens, UniProt Q9HC29); test: PubChem AID 2334; format: functional
[8] = test system: HEK293; test: cells; settings: Homo sapiens
[9] = target: Envelope glycoprotein gp160 (Human immunodeficiency virus 1, UniProt Q6QLK5); test: cell-free HIV fusion peptide-binding blockers – biochemical, uHTS, fluorescence dequenching, […] (AID 1986)
[10] = test system: BJ; test: BJ-TERT fibroblast viability loss – cell-based, RAS-independent, luminescence, dose response (AID 1933); format: functional; settings: Homo sapiens
[11] = test system: BJ; test: cells; format: functional, cell-based; settings: Homo sapiens
[12] = test system: BJ; test: BJ-TERT-LT-ST fibroblast viability loss – cell-based, RAS-independent, luminescence, dose response (AID 1935); format: functional; settings: Homo sapiens;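 further: BJ fibroblasts immortalized with TERT plus LT and ST oncogenes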
[13] = DRD fibroblast viability loss – cell-based, non-viral oncogenic, luminescence, dose response (AID 1934); format: functional; settings: Homo sapiens
[14] = target: Genome polyprotein (dengue virus type 2, UniProt P29990); test: flavivirus cap methylation enzyme inhibition – biochemical, confirmation dose response, primary screen (AID 588689); format: functional
[15] = target: Intestinal-type alkaline phosphatase (Mus musculus, UniProt P24822); test: PubChem AID 488874; format: functional
[16] = target: T2, Intestinal-type alkaline phosphatase (Homo sapiens, UniProt P09923); test: human intestinal alkaline phosphatase activators, dose response, biochemical, luminescence, uHTS hits (AID 463120); format: functional
[17] = target: T2, Intestinal-type alkaline phosphatase; test: activation of human intestinal alkaline phosphatase – biochemical, luminescent, uHTS hits, set 2, dose response (AID 488817); format: functional;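 further: potency of activators that raise enzyme activity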
[18] = target: T3, Alkaline phosphatase, tissue-nonspecific isozyme (Homo sapiens, UniProt P05186); test: activation of tissue-nonspecific alkaline phosphatase – biochemical, TNAP isozyme, human IAP uHTS hits, selectivity assay for human IAP activator project, dose response (AID 488886); format: functional;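 further: potency of compounds raising TNAP activity as a selectivity check on IAP activators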
T3 sequence (P05186 whole entry): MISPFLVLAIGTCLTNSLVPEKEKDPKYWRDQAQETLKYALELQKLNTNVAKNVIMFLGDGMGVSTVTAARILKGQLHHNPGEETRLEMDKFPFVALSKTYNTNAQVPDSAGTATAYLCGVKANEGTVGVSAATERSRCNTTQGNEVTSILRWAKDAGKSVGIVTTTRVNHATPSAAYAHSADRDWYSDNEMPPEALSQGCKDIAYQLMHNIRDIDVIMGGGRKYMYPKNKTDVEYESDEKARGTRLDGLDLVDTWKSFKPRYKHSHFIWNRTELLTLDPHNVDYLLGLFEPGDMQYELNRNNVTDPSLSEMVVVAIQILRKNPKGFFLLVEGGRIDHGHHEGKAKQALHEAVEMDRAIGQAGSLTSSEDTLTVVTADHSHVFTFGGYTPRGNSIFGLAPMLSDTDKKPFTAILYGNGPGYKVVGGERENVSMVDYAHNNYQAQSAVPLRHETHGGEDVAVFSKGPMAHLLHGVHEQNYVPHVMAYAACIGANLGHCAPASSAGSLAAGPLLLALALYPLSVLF

[19] = target: T4, E3 ubiquitin-protein ligase XIAP (Homo sapiens, UniProt P98170); test: Counter Screen using XIAP-Bir3 for Chemical Antagonists of Bir1/2 domains of IAP-family anti-apoptotic proteins. [Related pubchem assays (depositor defined):AID1018, AID1449, AID1514, AID1638, AID1749, AID1750, AID488957, AID488963]
[20] = target: T4, E3 ubiquitin-protein ligase XIAP; test: small molecules displacing peptide from XIAP – biochemical, IAP family, fluorescence polarization (AID 1018); format: functional
[21] = protection from phage-mediated lysis, alamar blue read-out – E. coli UTI89, K1F phage, bacterial capsule biogenesis inhibitors (AID 488966); format: functional
[22] = target: Luciferin 4-monooxygenase (Photinus pyralis, UniProt P08659); test: inhibition of purified Photinus pyralis luciferase – biochemical, luminescence, dose response (AID 1891)
[23] = Luminescence Cell-Based Dose Confirmation HTS to Identify Inhibitors of Platelet Dense Granule Release. [Related pubchem assays: 1663 (Primary HTS), 1678 (Summary of Project)]; format: functional
[24] = test system: Saccharomyces cerevisiae; test: S. cerevisiae Caspase-1/ASC signal blockers IC50, NALP1 inhibitor project selectivity test (AID 488863); format: functional, organism-based
[25] = target: NACHT, LRR and PYD domains-containing protein 1 (Homo sapiens, UniProt Q9C000); test: NALP1 inhibitors in yeast, dose response, luminescent (AID 488860); format: functional
[26] = target: Beta-galactosidase (Escherichia coli, UniProt Q8VNN2); test: detection-enzyme interference by beta-gal modulators – biochemical, E. coli enzyme, set 3, artefact control for CCR6 antagonist project, dose response (AID 504712); format: functional
[27] = reduction of Shn3 3'UTR-driven luciferase in osteoblasts – cell-based, Clone20 osteoblasts, firefly luciferase, cherry-picked, dose response (AID 624132); format: functional;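 further: firefly luciferase luminescence from reporter carrying the Shn3 3'UTR in osteoblasts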
[28] = loss of viability in HepG2 cells – cell-based, CellTiter-Glo, cherry-picked, cytotoxicity control for Shn3 inhibitor project, dose response (AID 624134); format: functional
[29] = non-specific 3'UTR reporter inhibition in Clone20-Shn3RL – cell-based, Renilla luciferase, cherry-picked, counter-screen for Shn3 inhibitor project, dose response (AID 624133); format: functional
[30] = Fluorescence-based cell-based high throughput dose response assay for inhibitors of the interaction of nucleotide-binding oligomerization domain containing 2 (NOD2) and the receptor-interacting serine-threonine kinase 2 (RIPK2).; format: functional; settings: Homo sapiens
[31] = target: Beta Lactamase (Pseudomonas aeruginosa, UniProt Q932Y6); test: BLA reporter interference, concentration series – BLA reporter cells, FRET fluorescence, artefact control for NOD2-RIPK2 interaction inhibitor project, dose response (AID 651552); format: functional, cell-based
[32] = target: DNA dC->dU-editing enzyme APOBEC-3A (Homo sapiens, UniProt P31941); test: A3A deaminase inhibition for selectivity – biochemical, dose response (AID 504722); format: functional
[33] = target: DNA dC->dU-editing enzyme APOBEC-3G (Homo sapiens, UniProt Q9HC16); test: Dose Response confirmation of small molecule APOBEC3G DNA Deaminase Inhibitors via a fluorescence-based single-stranded DNA deaminase assay. [Related pubchem assays (depositor defined):AID493012, AID493028]; format: functional
[34] = target: Eukaryotic translation initiation factor 4H (Homo sapiens, UniProt Q15056); test: inhibitors of translation initiation factor eIF4H – SAR follow-up (AID 435011); format: functional
[35] = target: Polyadenylate-binding protein 1 (Homo sapiens, UniProt P11940); test: PABP inhibition in translation initiation, SAR follow-up (AID 435018); format: functional

T4 sequence (P98170 whole entry): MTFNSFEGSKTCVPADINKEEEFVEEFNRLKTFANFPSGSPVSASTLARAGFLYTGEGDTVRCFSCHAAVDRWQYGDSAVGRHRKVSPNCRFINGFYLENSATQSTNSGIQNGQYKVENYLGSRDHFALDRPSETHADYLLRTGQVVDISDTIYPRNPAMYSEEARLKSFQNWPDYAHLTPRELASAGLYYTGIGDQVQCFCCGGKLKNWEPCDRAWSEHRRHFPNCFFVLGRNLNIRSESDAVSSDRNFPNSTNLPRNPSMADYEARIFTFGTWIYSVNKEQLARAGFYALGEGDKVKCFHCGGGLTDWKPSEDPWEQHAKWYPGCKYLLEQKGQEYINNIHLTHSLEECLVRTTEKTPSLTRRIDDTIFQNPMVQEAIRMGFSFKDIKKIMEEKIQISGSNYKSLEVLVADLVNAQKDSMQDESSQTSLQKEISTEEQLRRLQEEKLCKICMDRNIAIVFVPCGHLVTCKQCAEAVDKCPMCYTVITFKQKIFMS
T2 sequence (P09923 whole entry): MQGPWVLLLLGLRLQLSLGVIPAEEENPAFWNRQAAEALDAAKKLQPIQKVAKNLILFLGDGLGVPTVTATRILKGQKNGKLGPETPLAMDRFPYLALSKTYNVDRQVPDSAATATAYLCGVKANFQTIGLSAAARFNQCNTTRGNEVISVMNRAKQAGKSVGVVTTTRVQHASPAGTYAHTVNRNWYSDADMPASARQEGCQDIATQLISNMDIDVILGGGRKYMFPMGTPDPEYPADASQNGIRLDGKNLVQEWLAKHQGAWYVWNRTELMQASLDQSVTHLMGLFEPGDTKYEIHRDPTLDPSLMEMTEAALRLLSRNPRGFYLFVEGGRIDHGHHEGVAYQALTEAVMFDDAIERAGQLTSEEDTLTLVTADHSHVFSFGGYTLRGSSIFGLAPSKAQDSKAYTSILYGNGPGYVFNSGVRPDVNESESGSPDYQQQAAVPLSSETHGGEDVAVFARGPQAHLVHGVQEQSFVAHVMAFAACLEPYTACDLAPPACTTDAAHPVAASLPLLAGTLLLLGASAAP
Chain of DNA dC->dU-editing enzyme APOBEC-3G (Q9HC16 whole entry): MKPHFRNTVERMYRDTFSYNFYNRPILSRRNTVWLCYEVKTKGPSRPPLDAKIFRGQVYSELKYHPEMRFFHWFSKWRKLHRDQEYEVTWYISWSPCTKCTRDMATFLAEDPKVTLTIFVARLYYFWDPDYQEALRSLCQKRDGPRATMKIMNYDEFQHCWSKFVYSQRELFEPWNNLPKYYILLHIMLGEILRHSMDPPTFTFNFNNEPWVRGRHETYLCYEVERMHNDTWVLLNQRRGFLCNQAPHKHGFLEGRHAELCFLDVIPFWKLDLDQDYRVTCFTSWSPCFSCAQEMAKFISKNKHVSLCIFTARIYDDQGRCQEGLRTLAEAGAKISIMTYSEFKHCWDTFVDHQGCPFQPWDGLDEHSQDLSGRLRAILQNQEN
Chain of Luciferin 4-monooxygenase (P08659 whole entry): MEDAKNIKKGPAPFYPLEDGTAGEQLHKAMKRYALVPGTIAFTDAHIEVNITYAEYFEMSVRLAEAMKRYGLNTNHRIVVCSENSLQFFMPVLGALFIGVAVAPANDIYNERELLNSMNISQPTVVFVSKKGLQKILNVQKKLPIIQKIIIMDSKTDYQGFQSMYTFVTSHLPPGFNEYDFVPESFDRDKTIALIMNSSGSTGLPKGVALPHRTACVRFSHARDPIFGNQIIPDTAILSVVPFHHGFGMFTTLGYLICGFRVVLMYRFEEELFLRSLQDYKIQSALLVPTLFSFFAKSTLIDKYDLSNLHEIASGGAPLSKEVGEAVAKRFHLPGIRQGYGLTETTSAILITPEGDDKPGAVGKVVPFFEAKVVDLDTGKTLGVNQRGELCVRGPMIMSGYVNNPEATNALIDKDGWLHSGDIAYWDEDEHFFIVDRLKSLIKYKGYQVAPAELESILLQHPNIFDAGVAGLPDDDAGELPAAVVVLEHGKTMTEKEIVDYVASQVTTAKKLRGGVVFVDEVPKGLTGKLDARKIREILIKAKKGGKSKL
Chain of Beta-galactosidase (Q8VNN2 whole entry): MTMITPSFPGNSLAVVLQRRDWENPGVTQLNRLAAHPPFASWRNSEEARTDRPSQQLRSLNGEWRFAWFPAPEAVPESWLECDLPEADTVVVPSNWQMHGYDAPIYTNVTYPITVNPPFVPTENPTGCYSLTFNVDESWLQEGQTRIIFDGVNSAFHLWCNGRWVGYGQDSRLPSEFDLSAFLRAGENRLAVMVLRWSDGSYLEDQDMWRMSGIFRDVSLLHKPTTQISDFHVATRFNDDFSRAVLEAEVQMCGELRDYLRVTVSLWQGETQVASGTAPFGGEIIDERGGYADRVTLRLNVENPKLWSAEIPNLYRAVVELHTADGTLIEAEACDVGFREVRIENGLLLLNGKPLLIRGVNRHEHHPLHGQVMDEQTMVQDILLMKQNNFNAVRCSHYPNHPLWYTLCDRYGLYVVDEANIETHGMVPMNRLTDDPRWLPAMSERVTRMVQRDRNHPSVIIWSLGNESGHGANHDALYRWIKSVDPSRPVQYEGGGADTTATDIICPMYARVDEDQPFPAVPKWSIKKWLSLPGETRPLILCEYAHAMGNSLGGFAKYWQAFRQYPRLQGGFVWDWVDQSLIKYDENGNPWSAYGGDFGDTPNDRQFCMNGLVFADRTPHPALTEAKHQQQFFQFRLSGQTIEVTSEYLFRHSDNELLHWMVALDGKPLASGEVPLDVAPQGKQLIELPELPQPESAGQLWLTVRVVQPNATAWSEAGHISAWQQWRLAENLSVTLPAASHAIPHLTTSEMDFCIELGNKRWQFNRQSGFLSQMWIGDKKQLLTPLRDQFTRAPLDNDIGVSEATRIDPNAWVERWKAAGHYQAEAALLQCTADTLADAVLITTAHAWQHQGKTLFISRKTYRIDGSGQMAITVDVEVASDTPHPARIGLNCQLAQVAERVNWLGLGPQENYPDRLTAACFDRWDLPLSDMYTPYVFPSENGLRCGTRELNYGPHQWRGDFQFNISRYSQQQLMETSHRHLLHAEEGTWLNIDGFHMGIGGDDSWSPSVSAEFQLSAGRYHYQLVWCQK
Chain of Nucleotide-binding oligomerization domain-containing protein 2 (Q9HC29 whole entry, the tested form may be a part): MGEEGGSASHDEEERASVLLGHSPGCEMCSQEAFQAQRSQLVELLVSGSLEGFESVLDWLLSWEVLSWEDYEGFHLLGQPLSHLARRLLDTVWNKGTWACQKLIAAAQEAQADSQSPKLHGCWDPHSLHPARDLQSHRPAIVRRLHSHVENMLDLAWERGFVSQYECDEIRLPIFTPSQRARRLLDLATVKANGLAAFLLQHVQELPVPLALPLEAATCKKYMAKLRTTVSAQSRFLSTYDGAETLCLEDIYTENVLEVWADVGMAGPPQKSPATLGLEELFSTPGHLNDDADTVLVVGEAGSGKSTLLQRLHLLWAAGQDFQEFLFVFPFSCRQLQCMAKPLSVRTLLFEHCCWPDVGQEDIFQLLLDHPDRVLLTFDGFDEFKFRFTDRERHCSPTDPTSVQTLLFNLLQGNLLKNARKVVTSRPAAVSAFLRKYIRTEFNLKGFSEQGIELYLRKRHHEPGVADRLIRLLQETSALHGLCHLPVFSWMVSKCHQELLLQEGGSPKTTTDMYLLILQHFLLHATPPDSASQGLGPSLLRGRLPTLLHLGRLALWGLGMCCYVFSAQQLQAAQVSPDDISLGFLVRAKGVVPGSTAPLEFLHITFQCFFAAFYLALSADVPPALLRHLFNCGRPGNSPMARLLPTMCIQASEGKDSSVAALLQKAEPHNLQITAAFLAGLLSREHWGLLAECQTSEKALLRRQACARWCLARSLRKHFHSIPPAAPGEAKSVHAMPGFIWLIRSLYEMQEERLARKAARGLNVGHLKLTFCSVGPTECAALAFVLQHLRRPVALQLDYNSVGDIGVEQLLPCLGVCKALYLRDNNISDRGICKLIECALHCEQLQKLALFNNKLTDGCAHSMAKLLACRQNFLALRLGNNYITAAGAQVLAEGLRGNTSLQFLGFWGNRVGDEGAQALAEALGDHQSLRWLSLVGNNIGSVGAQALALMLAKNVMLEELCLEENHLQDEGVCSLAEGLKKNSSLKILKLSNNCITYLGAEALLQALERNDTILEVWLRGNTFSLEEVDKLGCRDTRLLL
Chain of Genome polyprotein (P29990 2492-3391 limits assumed): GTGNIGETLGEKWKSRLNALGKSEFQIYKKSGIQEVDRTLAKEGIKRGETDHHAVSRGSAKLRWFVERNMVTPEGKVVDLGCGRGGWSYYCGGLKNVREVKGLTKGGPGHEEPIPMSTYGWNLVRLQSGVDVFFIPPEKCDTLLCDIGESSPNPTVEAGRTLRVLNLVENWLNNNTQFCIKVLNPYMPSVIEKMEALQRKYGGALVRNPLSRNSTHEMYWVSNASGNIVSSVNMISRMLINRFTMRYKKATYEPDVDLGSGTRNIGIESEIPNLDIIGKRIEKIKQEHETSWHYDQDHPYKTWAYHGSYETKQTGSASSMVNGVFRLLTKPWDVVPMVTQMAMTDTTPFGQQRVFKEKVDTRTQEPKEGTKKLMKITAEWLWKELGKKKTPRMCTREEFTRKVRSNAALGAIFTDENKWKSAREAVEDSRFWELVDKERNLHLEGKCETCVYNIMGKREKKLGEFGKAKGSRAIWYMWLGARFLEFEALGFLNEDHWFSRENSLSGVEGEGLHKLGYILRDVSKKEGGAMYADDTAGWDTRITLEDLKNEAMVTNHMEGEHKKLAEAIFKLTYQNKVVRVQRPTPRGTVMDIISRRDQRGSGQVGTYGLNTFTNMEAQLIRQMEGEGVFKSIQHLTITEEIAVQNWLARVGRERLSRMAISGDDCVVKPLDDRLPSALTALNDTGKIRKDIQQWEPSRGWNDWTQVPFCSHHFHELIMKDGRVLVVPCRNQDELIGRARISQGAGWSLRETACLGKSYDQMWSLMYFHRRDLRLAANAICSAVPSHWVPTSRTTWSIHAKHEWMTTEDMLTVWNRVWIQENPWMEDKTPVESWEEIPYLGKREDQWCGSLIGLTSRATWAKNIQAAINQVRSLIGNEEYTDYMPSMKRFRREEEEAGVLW

NC(=O)C1CCN(c2ccc(S(=O)(=O)N3CCC(Cc4ccccc4)CC3)cn2)CC1
EC50 [1]: 4.32 µM (active) | IC50 [2]: > 20 µM (inactive) | IC50 [3]: > 20 µM (inactive) | IC50 [4]: > 20 µM (inactive) | IC50 [5]: 12.4 µM (active) | IC50 [6]: 5.76 µM (active) | IC50 [7]: 9.14 µM (active) | IC50 [8]: > 20 µM (inactive)

O=C(O)CCN1C(=O)/C(=C\c2cccc(Oc3ccccc3)c2)SC1=S
IC50 [9]: 26.8 µM (active) | EC50 [10]: > 150 µM (not active) | EC50 [11]: > 150 µM (not active) | EC50 [12]: > 150 µM (inconclusive) | EC50 [13]: > 150 µM (not active) | IC50 [14]: 37.4 µM (active)

CN(Cc1ccccc1)C(=O)c1nc[nH]c1C(=O)Nc1nccs1
IC50 [15]: 74.8 µM (active) | EC50 [16]: 10.1 µM (active) | EC50 [17]: 15.8 µM (active) | EC50 [18]: 16.6 µM (active)

COc1ccc(-c2nnc(NC(=O)c3cc(C)on3)s2)cc1
IC50 [19]: > 100 µM (inactive) | IC50 [20]: > 100 µM (not active) | IC50 [21]: > 75 µM (active)

O=C1CC(Sc2nnnn2-c2ccccc2)C(=O)N1c1cccc(Cl)c1 (stereo not given)
EC50 [22]: > 112 µM (not active) | EC50 [23]: 19.1 µM (active) | IC50 [24]: 5.13 µM (active) | IC50 [25]: 5.83 µM (active) | IC50 [26]: > 66.6 µM (inactive) | AC50 [27]: 8.53 µM (active) | AC50 [28]: 24.5 µM (active) | AC50 [29]: 8.88 µM (active) | IC50 [30]: 2.81 µM (active) | IC50 [31]: 12.6 µM (inactive)

O=[N+]([O-])c1ccccc1/C=N/n1c(S)nnc1-c1ccccc1
IC50 [32]: > 100 µM (inactive) | IC50 [33]: 4.25 µM (active)

COc1cc(/C=N\NC(=O)c2ccccc2O)ccc1OCC(=O)Nc1ccc(C)c(C)c1
IC50 [34]: 34.6 µM (active) | IC50 [35]: > 100 µM (inactive)
